Values joined by “and” are separate entries in the source; they are usually repeats but may differ in a detail not shown here. Equal entries are not always repeated. Marks after values point to notes of the source that are not given here.

In series [1] the test system is young fly larvae (stage 1). The series can be described thus: Insecticidal activity in manure of hens fed Cyromazine products (Example 14). In kind it is in vivo. The following applies: Cyromazine in feed 5 PPM. The protocol:
(§1) Twenty four Lohman laying hens were placed in conventional layer cages (2 birds per cage) and divided into 6 experimental groups of 4 birds per group.
(§2) The hens were fed for three weeks with laying hens feed (17.5% protein, no AGP) supplemented with a Cyromazine product as summarized in Table 12.
After three weeks of feeding according to the experimental groups of example 3, manure was collected from each group of hens. The manure was frozen for 48 hours to destroy any insects present and then thawed.
For each experimental group, 5 cups containing 100 g thawed manure were prepared (70-75% moisture). Each cup represents a group replicate.
Thirty young fly larvae (stage 1) were placed in each cup and incubated in an insectarium for 10 days. After ten days the pupae/larvae/flies were counted. Analysis of variance was done using a One Way Anova test and the comparison of means was done with Tukey-Kramer test, significance level-α=0.05.

Series [2] is described as follows: Cyromazine residue in eggs (Example 15). Also noted: species or system Lohman laying hens. Conditions: female, Lohman, chicken, in vivo.
From the text: as §1, §2
After four weeks of feeding according to the experimental groups of example 13, eggs were collected.
For each treatment 16 eggs were collected (4 eggs from each hen). The contents of the 4 eggs (without the shell) of each bird were pooled in one container marked to indicate the treatment. Each container was a sample. A total of 4 tests were performed for each treatment. The containers were packed in a temperature-controlled pack that was sent for Cyromazine analysis to Eurofines laboratory in Germany.
Samples are weighed and one or more samples is spiked with an internal standard.
Acetonitrile is added and the sample is vortexed. Petroleum ether is added and a liquid/liquid extraction is performed in a shaker followed by centrifugation. An aliquot of the acetonitrile phase is removed and reduced in volume to near dryness then resolved by adding water and methanol. The mixture is vortexed then filtered by membrane filter and analyzed—Liquid chromatographic determination with LC-MS/MS. Quantitation is via comparison with samples spiked with an internal standard.

With `Nc1nc(N)nc(NC2CC2)n1` [NGNEC, Cyromazine], in series [1], the “Dead larvae and pupas %” value is 0%; the Normal pupa % is reported as 0^b %; the “Survival rate = (No of flies + normal pupas)/30*100” value was 0% and 0^b %. In addition, in series [1] (10 days), the Flies % is recorded as 0^b %. In series [2], this compound gave a concentration at 4 weeks of 88 ng/g. Further, in series [2] (4 weeks), the “Cyromazine in eggs, % of Larvadex 0.5% group” value turned out to be 102%.

These data come from US12178223B2, “Insect life cycle interruption agent(LCIA) formulations and their manufacture and use” (priority 2020, dated 2024).
